Measurements published in patent US6177426A, “Morpholino-N-ethyl ester prodrugs of indole sPLA2 inhibitors” (Eli Lilly and Company, priority 2000, dated 2001).

Legend:
[1] = Rat plasma pharmacokinetics study, oral bioavailability; type: in vivo, Rat (Fischer 344); details: compared to other ester prodrugs
Protocol: The bioavailability of the compound of the invention, ((3-(2-Amino-1,2-dioxoethyl)-1-((1,1'-biphenyl)-3-ylmethyl)-2-methyl-1H-indol-4-yl)oxy)acetic acid morpholino-N-ethyl ester, was determined using a Rat Study Protocol Plasma
The purpose of this assay was to evaluate and compare the oral delivery for selected sPLA2 inhibitors.
The amount of sPLA2 inhibitor was corrected for free acid equivalents.
Suspension of sPLA2 inhibitor in 10% Acacia, prepared just prior to dose administration
Dose: 10 mg/kg (of the parent acid)
Blood samples (0.8 ml) were obtained at the following times: 0.5, 1, 2, 4, 8 and 24 hours (2 rats/timepoint)
Plasma was assayed by HPLC to measure concentrations of the different sPLA2 inhibitors (measured as free acids). Cmax (maximal plasma concentrations), and AUC values were determined from the mean plasma concentration-time profiles.

[2] = biological target: recombinant human secreted phospholipase A2; details: guinea pig lung tissue; sPLA2 10 ug/ml; data from U.S. Pat. No. 5,654,326; read-out: Tissue test secreted PLA2 Apparent KB; cited from earlier work
[3] = biological target: recombinant human secreted phospholipase A2; details: data from U.S. Pat. No. 5,654,326, cited from earlier work

## Cc1c(C(=O)C(N)=O)c2c(OCC(=O)OCCN3CCOCC3)cccc2n1Cc1cccc(-c2ccccc2)c1 [Compound of formula (I), ((3-(2-amino-1,2-dioxoethyl)-1-((1,1'-biphenyl)-3-ylmethyl)-2-methyl-1H-indol-4-yl)oxy)acetic acid morpholino-N-ethyl ester]
[1]; listed as morpholino-N-ethyl ester
  oral bioavailability compared to other esters (in words): unexpectedly more bioavailable than other esters

## Cc1c(C(=O)C(N)=O)c2c(OCC(=O)OCCN3CCOCC3)cccc2n1Cc1cccc(-c2ccccc2)c1 [formula (I)]
[1]
  oral bioavailability compared to other esters (in words): highly bioavailable upon oral administration compared to other common ester type prodrugs

## Cc1c(C(=O)C(N)=O)c2c(OCC(=O)O)cccc2n1Cc1cccc(-c2ccccc2)c1 [formula (II)]
[2]
  Kb: 57 ± 11 nM
[3]; chromogenic assay, 3-4 tests, read-out: Inhibition of human secreted PLA2 IC50 ± mean deviation (3-4 tests)
  IC50: 4.33 ± 2.31 nM
[3]; conclusion of Assay 1
  inhibiting sPLA2 (conclusion in words): highly active in inhibiting sPLA2
